Measured values from ChEMBL document CHEMBL2424644, “Synthesis and antiproliferative evaluation of novel benzoimidazole-contained oxazole-bridged analogs of combretastatin A-4” (Eur J Med Chem, 2013).

Experiments:
BXPC-3 [1] = experiment: Potency index, ratio of vincristine IC50 to compound IC50 for human BxPC3 cells; format: functional
HT-29 [2] = experiment: Cell cycle arrest in human HT-29 cells assessed as accumulation at G0/G1 phase at 50 nM after 24 hrs by propidium iodide staining-based flow cytometric analysis (reference value: 68.24%); format: functional
Tubulin = experiment: Inhibition of tubulin (unknown origin) polymerization measured for 60 mins; format: protein-complex assay, Homo sapiens
MX1 [3] = experiment: Cytotoxicity against human MX1 cells assessed as growth inhibition after 72 hrs by MTT assay; format: functional, cell-based; conditions: MX1, 72 h
Mus musculus [4] = experiment: Toxicity in KM mouse allografted with mouse H22 cells assessed as body weight at 15 mg/kg, ip administered on day 1 and 4 measured on day 8 (reference value: 30 +/- 3.24 g); format: organism-based; set-up: dose 15 mg/kg, route intraperitoneal; conditions: in vivo
Mus musculus [5] = experiment: Toxicity in KM mouse allografted with mouse H22 cells assessed as body weight at 7.5 mg/kg, ip administered on day 1 to 7 measured on day 8 (reference value: 30 +/- 3.24 g); format: organism-based; set-up: dose 7.5 mg/kg, route intraperitoneal; conditions: in vivo
Mus musculus [6] = experiment: Toxicity in KM mouse allografted with mouse H22 cells assessed as body weight at 20 mg/kg, ip administered on day 1 measured on day 8 (reference value: 30 +/- 3.24 g); format: organism-based; set-up: dose 20 mg/kg, route intraperitoneal; conditions: in vivo
MCF7 [7] = experiment: Potency index, ratio of combretastatin A-4 IC50 to compound IC50 for human MCF7 cells; format: functional
H22 [8] = experiment: Antitumor activity against mouse H22 cells allografted in KM mouse assessed as tumor growth inhibition at 10 mg/kg, ip administered on day 1, 3, 5, 7 measured on day 8 relative to control; format: functional; conditions: route intraperitoneal, read-out: TGI
HT-29 [9] = experiment: Cell cycle arrest in human HT-29 cells assessed as accumulation at S phase at 100 nM after 24 hrs by propidium iodide staining-based flow cytometric analysis (reference value: 24.39%); format: functional
Mus musculus [10] = experiment: Toxicity in KM mouse allografted with mouse H22 cells assessed as body weight at 10 mg/kg, ip administered on day 1, 3, 5, 7 measured on day 8 (reference value: 30 +/- 3.24 g); format: organism-based; set-up: dose 10 mg/kg, route intraperitoneal; conditions: in vivo
HT-29 [11] = experiment: Cell cycle arrest in human HT-29 cells assessed as accumulation at G0/G1 phase at 12.5 nM after 24 hrs by propidium iodide staining-based flow cytometric analysis (reference value: 68.24%); format: functional
HT-29 [12] = experiment: Cell cycle arrest in human HT-29 cells assessed as accumulation at G2/M phase after 24 hrs by propidium iodide staining-based flow cytometric analysis; format: functional
BXPC-3 [13] = experiment: Cytotoxicity against human BxPC3 cells assessed as growth inhibition after 72 hrs by MTT assay; format: functional, cell-based; conditions: BXPC-3, 72 h
HT-29 [14] = experiment: Cell cycle arrest in human HT-29 cells assessed as accumulation at G2/M phase at 100 nM after 24 hrs by propidium iodide staining-based flow cytometric analysis (reference value: 7.37%); format: functional
HT-29 [15] = experiment: Cell cycle arrest in human HT-29 cells assessed as accumulation at G0/G1 phase at 100 nM after 24 hrs by propidium iodide staining-based flow cytometric analysis (reference value: 68.24%); format: functional
MCF7 [16] = experiment: Cytotoxicity against human MCF7 cells assessed as growth inhibition after 72 hrs by MTT assay; format: functional, cell-based; conditions: MCF7, 72 h
HT-29 [17] = experiment: Cytotoxicity against human HT-29 cells assessed as growth inhibition after 72 hrs by MTT assay; format: functional, cell-based; conditions: HT-29, 72 h
HT-29 [18] = experiment: Cell cycle arrest in human HT-29 cells assessed as accumulation at S phase at 50 nM after 24 hrs by propidium iodide staining-based flow cytometric analysis (reference value: 24.39%); format: functional
MX1 [19] = experiment: Cytotoxicity against taxol-resistant human MX1 cells assessed as growth inhibition after 72 hrs by MTT assay; format: functional, cell-based; conditions: MX1, 72 h
H22 [20] = experiment: Antitumor activity against mouse H22 cells allografted in KM mouse assessed as tumor growth inhibition at 15 mg/kg, ip administered on day 1 and 4 measured on day 8 relative to control; format: functional; conditions: route intraperitoneal, read-out: TGI
H22 [21] = experiment: Antitumor activity against mouse H22 cells allografted in KM mouse assessed as tumor growth inhibition at 20 mg/kg, ip administered on day 1 measured on day 8 relative to control; format: functional; conditions: route intraperitoneal, read-out: TGI
HT-29 [22] = experiment: Cell cycle arrest in human HT-29 cells assessed as accumulation at G2/M phase at 50 nM after 24 hrs by propidium iodide staining-based flow cytometric analysis (reference value: 7.37%); format: functional
KB [23] = experiment: Cytotoxicity against human KB cells assessed as growth inhibition after 72 hrs by MTT assay; format: functional, cell-based
HT-29 [24] = experiment: Cell cycle arrest in human HT-29 cells assessed as accumulation at S phase at 12.5 nM after 24 hrs by propidium iodide staining-based flow cytometric analysis (reference value: 24.39%); format: functional
H22 [25] = experiment: Antitumor activity against mouse H22 cells allografted in KM mouse assessed as tumor growth inhibition at 7.5 mg/kg, ip administered on day 1 to 7 measured on day 8 relative to control; format: functional; conditions: route intraperitoneal, read-out: TGI
HT-29 [26] = experiment: Cell cycle arrest in human HT-29 cells assessed as accumulation at G2/M phase at 12.5 nM after 24 hrs by propidium iodide staining-based flow cytometric analysis (reference value: 7.37%); format: functional
KB [27] = experiment: Cytotoxicity against vincristine-resistant human KB cells assessed as growth inhibition after 72 hrs by MTT assay; format: functional, cell-based
HT-29 [28] = experiment: Potency index, ratio of combretastatin A-4 IC50 to compound IC50 for human HT-29 cells; format: functional

SMILES: COc1cc(-c2ncoc2-c2ccc(OC)c3[nH]cnc23)cc(OC)c1OC
- Ratio IC50 (BXPC-3 [1]): 16
- Activity (HT-29 [2]): 29.54%
- IC50 (Tubulin): 390 nM
- IC50 (MX1 [3]): 397 nM
- Activity (Mus musculus [4]): 24.4 g
- Activity (Mus musculus [5]): 25.5 g
- Activity (Mus musculus [6]): 30.4 g
- Ratio IC50 (MCF7 [7]): 8
- inhibition in vivo at 10 mg/kg (H22 [8]): 52%
- Activity (HT-29 [9]): 30.04%
- Activity (Mus musculus [10]): 28.4 g
- Activity (HT-29 [11]): 50.29%
- Activity (HT-29 [12]): Dose-dependent effect
- IC50 (BXPC-3 [13]): 31 nM
- Activity (HT-29 [14]): 44.25%
- Activity (HT-29 [15]): 25.71%
- IC50 (MCF7 [16]): 25 nM
- IC50 (HT-29 [17]): 8.4 nM
- Activity (HT-29 [18]): 34.83%
- IC50 (MX1 [19]): 249 nM
- inhibition in vivo at 15 mg/kg (H22 [20]): 66%
- inhibition in vivo at 20 mg/kg (H22 [21]): 42%
- Activity (HT-29 [22]): 35.63%
- IC50 (KB [23]): 16 nM
- Activity (HT-29 [24]): 24.97%
- inhibition in vivo at 7.5 mg/kg (H22 [25]): 55%
- Activity (HT-29 [26]): 14.75%
- IC50 (KB [27]): 65 nM
- Ratio IC50 (HT-29 [28]): 32
